From patent US9863949B2, “Method for predicting and evaluating responsiveness to cancer treatment with DNA-damaging chemotherapeutic agents” (NEKTAR THERAPEUTICS, priority 2013, dated 2018)
Where two headings read alike, the source gives them in different places.

Legend:
HL60 = tested on: HL60
Protocol: (§1) Gemcitabine inhibits thymidylate synthetase, leading to inhibition of DNA synthesis and cell death. The cells were treated at concentrations of 0.01, 0.1, 1 and 10 μM in triplicate with appropriate controls.
(§2) A MTT cytotoxicity assay was performed. Optical density (OD) was determined for each sample, and IC50 values were determined (Graphpad Prism software using 4-parameter, non-linear curve fitting) for each drug relative to each cell line. The dose response of SN-38 and gemcitabine in the different cell lines was plotted.

NCI-H460 = tested on: NCI-H460
Protocol: as §1, §2

NCI-H460 cells = experiment: DNA damage pathway markers in NCI-H460 cells treated ex vivo, laser scanning cytometry; assay type: cell-based; settings: NCI-H460, 0.01 μM drug
Protocol: The cell lines, H460, HCT116, and HL60 were used in the study. H460 (30,000 cells/well) and HCT116 (15,000 cells/well) were grown in three 48 well plates. HL60 suspension cells were grown in five 25 cm flasks (1×10^6 cells/flask). Cells were treated with the following two concentrations of gemcitabine and SN-38:
Cells treated with DMSO (final concentration 0.01%) were used as the control. Following 24 hours of drug treatment, cells were washed and fixed at 0 hour, 6 hour, and 24 hour timepoints. Cells were then stained for detection of the following markers: γ-H2AX, survivin, BRCA1, BRCA2, FAD51, and ATM. Expression levels for each biomarker were determined based upon mean fluorescence intensity (MFI) by laser scanning cytometry (iCys).

HCT116 cells = experiment: Biomarker assay qualification, drug-treated HCT116 cells, MFI by iCys; assay type: cell-based, human; settings: HCT116 treated with 10 μM SN-38 for 24 hours
Protocol: Primary and secondary antibodies were obtained from commercial sources. Control (0.1% DMSO) and drug-treated (SN-38, 10 uM) tumor cell lines and peripheral blood mononuclear cells (PBMCs) from healthy donors were used for biomarker qualification. The cell lines employed were as follows: HCT 116 (human colon carcinoma), MCF7 (human breast adenocarcinoma), A549 (human lung carcinoma), and SK-BR-3 (human breast adenocarcinoma, derived from metastatic site).
(§3) Colorectal HCT-116 tumor cell lines treated with drug (SN-38, 10 μM) or DMSO (0.1%) were used as positive and negative controls, respectively, for the assay development for topoisomerase I and γ-H2Ax. […] After incubation, cells were detached using 0.25% trypsin for 2-5 minutes, washed, counted, fixed with 2% PFA for 20 minutes, and cytospun onto glass slides.
as §3, with “controls” for “controls, respectively,”, “of RAD51.” for “for topoisomerase I and γ-H2Ax.”
For each marker, one to three different antibodies were tested. […] Cells were cover slipped and fluorescence intensity was quantified using iCys (CompuCyte, Westwood, Mass.). […]

[1] = 24 hr drug + 24 hr without drug

Protocol for metastatic breast cancer: Seventy patients were enrolled in the trial (n=35 per arm). […] Fifteen (21.4%) patients had received prior bevacizumab. Among five patients with HER2-positive disease, all had received prior trastuzumab; none had received prior lapatinib.
Patients were randomized 1:1 into two treatment arms, comparing the same dose with a different dosing frequency. 4-arm-PEG-gly-irino-20K was administered at 145 mg/m^2 every 14 days (q14d) or every 21 days (q21 d) as an intravenous infusion over 90 minutes on day 1. Patients received treatment until disease progression or unacceptable toxicity. The drug dosage was dose-reduced by 25 mg/m^2 for grade 3-4 hematologic toxicity, grade 3-4 diarrhea, and other grade 2-4 non-hematologic toxicities (other than alopecia, anorexia, asthenia, and untreated nausea/vomiting). Protocol retreatment criteria required that toxicities and hematologic parameters were resolved to the following grades or levels prior to administration of the next dose: diarrhea, fully resolved; other non-hematologic toxicities, grade 1; neutrophils≧1,500/mm^3; platelets≧100,000/mm^3; and hemoglobin≧9 g/dL.
Medical history was taken at screening and on day 1 of each cycle. Physical exam was performed and serum CA27.29, complete blood count with differential, and serum chemistry were analyzed at screening, on day 1 of each cycle, and at end of treatment. Coagulation parameters were analyzed at screening and on day 1 of each cycle. Radiologic exam (either computed tomography or magnetic resonance imaging, with the same method per lesion used throughout the study) occurred at screening (within 28 days of day one, cycle 1) and approximately every 6 weeks thereafter until progressive disease, start of new anticancer therapy, or end of study. Patients were contacted approximately every 3 months after the end-of-treatment visit to assess progression (in the absence of progression on study), survival, receipt of subsequent anti-cancer therapy, and resolution of toxicity.
Response was measured by RECIST version 1.0 (Therasse, P., et al., 2000, Journal of the National Cancer Institute, 92 (3), 205-216) and toxicities were graded according to the National Cancer Institute Common Terminology Criteria for Adverse Events (NCI-CTCAE) version 3.0.
The primary endpoint was ORR, with confirmation of all responses by a second imaging procedure at least 28 days from the initial observation of response. Secondary endpoints were PFS, overall survival (OS), 6-month and 1-year survival, and safety. Exploratory endpoints included change from baseline in CA27.29, UGT1A1 and ABCC2 polymorphism for correlation with select toxicities.
Three populations for analysis were defined: 1) intent-to-treat (ITT), 2) efficacy evaluable, and 3) safety. The ITT population was the primary population for all efficacy analyses and included all randomized patients. […] The safety population consisted of all patients who received at least one dose or partial dose of chemotherapeutic agent.
Summary statistics were used for continuous variables, frequency counts and percentages were used for categorical variables. Ninety-five percent confidence interval were calculated for ORR using the Exact method. Time-to-event variables were analyzed using the Kaplan-Meier method.

Nc1ccn([C@@H]2O[C@H](CO)[C@@H](O)C2(F)F)c(=O)n1 [Gemcitabine, gemcitabine]
dose response in MTT cytotoxicity assay (HL60): Good dose response
dose response in MTT cytotoxicity assay (NCI-H460): Good dose response
ATM % change in MFI (NCI-H460 cells; 24 hr drug): 125%
ATM % change of positive cells (NCI-H460 cells; 24 hr drug): −28%
BRCA1 % change in MFI (NCI-H460 cells; 24 hr drug): −3%
BRCA1 % change of positive cells (NCI-H460 cells; 24 hr drug): 162%
BRCA2 % change in MFI (NCI-H460 cells; 24 hr drug): −43%
BRCA2 % change of positive cells (NCI-H460 cells; 24 hr drug): 130%
RAD51 % change in MFI (NCI-H460 cells; 24 hr drug): 7%
RAD51 % change of positive cells (NCI-H460 cells; 24 hr drug): 62%
Survivin % change in MFI (NCI-H460 cells; 24 hr drug): −32%
Survivin % change of positive cells (NCI-H460 cells; 24 hr drug): −32%
yH2AX % change in MFI (NCI-H460 cells; 24 hr drug): 3%
yH2AX % change of positive cells (NCI-H460 cells; 24 hr drug): 204%
ATM % change in MFI (NCI-H460 cells; 24 hr drug + 6 hr without drug): 438%
ATM % change of positive cells (NCI-H460 cells; 24 hr drug + 6 hr without drug): 80%
BRCA1 % change in MFI (NCI-H460 cells; 24 hr drug + 6 hr without drug): 18%
BRCA1 % change of positive cells (NCI-H460 cells; 24 hr drug + 6 hr without drug): −54%
BRCA2 % change in MFI (NCI-H460 cells; 24 hr drug + 6 hr without drug): −28%
BRCA2 % change of positive cells (NCI-H460 cells; 24 hr drug + 6 hr without drug): 6%
RAD51 % change in MFI (NCI-H460 cells; 24 hr drug + 6 hr without drug): 127%
RAD51 % change of positive cells (NCI-H460 cells; 24 hr drug + 6 hr without drug): 613%
Survivin % change in MFI (NCI-H460 cells; 24 hr drug + 6 hr without drug): 223%
Survivin % change of positive cells (NCI-H460 cells; 24 hr drug + 6 hr without drug): 1%
yH2AX % change in MFI (NCI-H460 cells; 24 hr drug + 6 hr without drug): 40%
yH2AX % change of positive cells (NCI-H460 cells; 24 hr drug + 6 hr without drug): 1235%
ATM % change in MFI (NCI-H460 cells; [1]): 151%
ATM % change of positive cells (NCI-H460 cells; [1]): 40%
BRCA1 % change in MFI (NCI-H460 cells; [1]): 206%
BRCA1 % change of positive cells (NCI-H460 cells; [1]): 3750%
BRCA2 % change in MFI (NCI-H460 cells; [1]): 296%
BRCA2 % change of positive cells (NCI-H460 cells; [1]): 167%
RAD51 % change in MFI (NCI-H460 cells; [1]): 23%
RAD51 % change of positive cells (NCI-H460 cells; [1]): 260%
Survivin % change in MFI (NCI-H460 cells; [1]): 457%
Survivin % change of positive cells (NCI-H460 cells; [1]): −14%
yH2AX % change in MFI (NCI-H460 cells; [1]): 288%
yH2AX % change of positive cells (NCI-H460 cells; [1]): 1834%

CCc1c2c(nc3ccc(O)cc13)-c1cc3c(c(=O)n1C2)COC(=O)[C@]3(O)CC [SN-38]
dose response in MTT cytotoxicity assay (HL60; HL60, 72 hours, 0.01-10 μM): Good dose response
dose response in MTT cytotoxicity assay (NCI-H460; H460, 72 hours, 0.01-10 μM): Good dose response
γ-H2Ax High, MFI (x10^3) (HCT116 cells; staining panel 1): HCT116 (SN38), 487 x10^3
RAD51 High, MFI (x10^3) (HCT116 cells; staining panel 2): HCT116 (SN38), 948 x10^3
ATM % change in MFI (NCI-H460 cells; 24 hr drug): 120%
ATM % change of positive cells (NCI-H460 cells; 24 hr drug): 13%
BRCA1 % change in MFI (NCI-H460 cells; 24 hr drug): −8%
BRCA1 % change of positive cells (NCI-H460 cells; 24 hr drug): 143%
BRCA2 % change in MFI (NCI-H460 cells; 24 hr drug): −20%
BRCA2 % change of positive cells (NCI-H460 cells; 24 hr drug): 131%
RAD51 % change in MFI (NCI-H460 cells; 24 hr drug): −8%
RAD51 % change of positive cells (NCI-H460 cells; 24 hr drug): 180%
Survivin % change in MFI (NCI-H460 cells; 24 hr drug): 149%
Survivin % change of positive cells (NCI-H460 cells; 24 hr drug): −18%
yH2AX % change in MFI (NCI-H460 cells; 24 hr drug): 1%
yH2AX % change of positive cells (NCI-H460 cells; 24 hr drug): 235%
ATM % change in MFI (NCI-H460 cells; 24 hr drug + 6 hr without drug): 329%
ATM % change of positive cells (NCI-H460 cells; 24 hr drug + 6 hr without drug): 88%
BRCA1 % change in MFI (NCI-H460 cells; 24 hr drug + 6 hr without drug): −10%
BRCA1 % change of positive cells (NCI-H460 cells; 24 hr drug + 6 hr without drug): −52%
BRCA2 % change in MFI (NCI-H460 cells; 24 hr drug + 6 hr without drug): −16%
BRCA2 % change of positive cells (NCI-H460 cells; 24 hr drug + 6 hr without drug): 8%
RAD51 % change in MFI (NCI-H460 cells; 24 hr drug + 6 hr without drug): 120%
RAD51 % change of positive cells (NCI-H460 cells; 24 hr drug + 6 hr without drug): 337%
Survivin % change in MFI (NCI-H460 cells; 24 hr drug + 6 hr without drug): 203%
Survivin % change of positive cells (NCI-H460 cells; 24 hr drug + 6 hr without drug): 4%
yH2AX % change in MFI (NCI-H460 cells; 24 hr drug + 6 hr without drug): −7%
yH2AX % change of positive cells (NCI-H460 cells; 24 hr drug + 6 hr without drug): 919%
ATM % change in MFI (NCI-H460 cells; [1]): 41%
ATM % change of positive cells (NCI-H460 cells; [1]): 105%
BRCA1 % change in MFI (NCI-H460 cells; [1]): 162%
BRCA1 % change of positive cells (NCI-H460 cells; [1]): 3700%
BRCA2 % change in MFI (NCI-H460 cells; [1]): 263%
BRCA2 % change of positive cells (NCI-H460 cells; [1]): 261%
RAD51 % change in MFI (NCI-H460 cells; [1]): 32%
RAD51 % change of positive cells (NCI-H460 cells; [1]): 60%
Survivin % change in MFI (NCI-H460 cells; [1]): 210%
Survivin % change of positive cells (NCI-H460 cells; [1]): 85%
yH2AX % change in MFI (NCI-H460 cells; [1]): −77%
yH2AX % change of positive cells (NCI-H460 cells; [1]): 328%

pentaerythritolyl-4-arm-(PEG-1-methylene-2 oxo-vinylamino acetate linked-irinotecan)-20K [4-arm-PEG-gly-irino-20K]
objective response rate (ORR) (metastatic breast cancer; 145 mg/m^2 IV, every 14 days or every 21 days): 28.6%
Overall Survival (OS) (metastatic breast cancer; Total): 10.3 months
Progression Free Survival (PFS) (metastatic breast cancer; Total): 4.6 months
Overall best CA27.29 response (50% or better decline in at least one observation from baseline) (metastatic breast cancer; Total, 16/45): 36% (16/45)
Overall Response Rate (ORR) (metastatic breast cancer; Total, N = 66): 29% (N = 66)
Overall Survival (OS) (metastatic breast cancer; q21d): (13.1 months in q21d)
Progression Free Survival (PFS) (metastatic breast cancer; q21d): (5.3 months in q21d)
